Reference: PubChem BioAssay (NCI)
Where “and” joins values, the source holds several entries; their conditions need not be identical. Identical values can stand only once.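 The compound was tested at five concentrations on cells cultured in 96-well plates, with a 48-hour exposure period. Here, GI50 denotes the concentration required for 50% inhibition of growth. TGI marks complete inhibition of growth.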

System: MDA-MB-468 breast
Assay: NCI-60 cell line screen, 48 h

SMILES | GI50 | TGI
O=C(O)c1ccc([S-])cc1.[Au+].c1ccc(CN2[CH-]N(Cc3ccccc3)C(c3ccccc3)=C2c2ccccc2)cc1 | 0.188 µM | 0.873 µM
COc1cc(C2c3cc4c(cc3OC3(OC)COC(=O)C23)OCO4)cc(OC)c1OC (centres undefined) | 0.616 µM | 88.6 µM
O=C(O)c1ccc2c3c(ncnc13)-c1ccccc1C2=O | > 81.9 µM | > 100 µM
COc1ccc(-c2cn(-c3cccc(C(=O)/C=C/c4ccc(O)c(OC)c4)c3)c(=O)[nH]2)cc1 | 5.46 µM | > 100 µM
Cn1c(/C=C(\C#N)c2cccc(C(F)(F)F)c2)nc2c(N3CCOCC3)nc(Cl)nc21 | 0.432 µM | 1.63 µM
CCCC(=O)NC(c1cccnc1)c1cc(C(C)(C)C)c2cccnc2c1O (centres undefined) | 2.31 µM | 8.98 µM
Oc1ccc2ccccc2c1C1NN=C(c2ccccc2)S1 (centres undefined) | 0.536 µM | 3.94 µM
CN1CCC(C(=O)Nc2n[nH]c3nc(-c4ccc(O)cc4)c(Br)cc23)CC1 | 0.486 µM and 0.779 µM | 1.41 µM and 2.83 µM
COc1ccc2c(c1)c1nc3cc(C)c(C)cc3nc1n2CCN(C)C | 0.761 µM | 2.45 µM
COc1cc(-c2csc(NC(=O)Nc3cc(C(F)(F)F)cc(C(F)(F)F)c3)n2)cc(OC)c1OC | 1.33 µM | 9.28 µM
Cc1cc(Nc2ccc(F)cc2)nc(N2CCN(c3ccnc4cc(Cl)ccc34)CC2)n1 | 2.72 µM | > 100 µM
CC(C)(C)NCCC(O)c1cc2c(Cl)cc(Cl)cc2c2cc(C(F)(F)F)ccc12 (centres undefined) | 1.59 µM | 3.06 µM
O=CC(Br)C(Br)c1ccccc1 (centres undefined) | 1.48 µM | 3.65 µM
CN1C(=O)C(=Cc2cn(Cc3ccccc3)c3ccccc23)C(=O)N(C)C1=O | 0.0639 µM | 0.158 µM
CCN(CC)CCCC(C)Nc1c2ccc(Cl)cc2nc2cc(OC)c(OC)cc12 (centres undefined) | 1.3 µM | 2.83 µM
CCO/C=N/C1=C(C#N)C(c2ccc(Cl)cc2)c2sc3c(C)cccc3c2O1 (centres undefined) | 0.386 µM | 14.5 µM

SMILES | GI50 | TGI
N#Cc1ccc(C2C3=C(CCCC3=O)OC3=C2C(=O)c2ccccc2C3=O)cc1 (centres undefined) | 0.309 µM | 0.867 µM
COc1cc(F)cc([C@@H](CO)NC(=O)[C@@H](C)N2Cc3ccc(-c4nc(NC5CCOCC5)ncc4Cl)cc3C2=O)c1 | 1.82 µM | 17 µM
CCOc1ccc2nc(-c3cccc(OCC(=O)NC(C)C)c3)nc(Nc3ccc(-c4cn[nH]c4)cc3)c2c1 | 2.31 µM | 14.9 µM
COc1ccc([I+]c2ccccc2)cc1 | 0.253 µM | > 36.6 µM
COc1ccc(-c2nn(-c3cccc(Cl)c3)cc2-c2c(C#N)c(=O)n3[nH]c(-c4ccc(C)cc4)nc3c2C#N)cc1 | 1.05 µM | 2.88 µM
CC1(C)N=C(N)N=C(N)N1c1ccc(CCc2ccc(Cl)cc2S(=O)(=O)F)c(Cl)c1 | 3.59 µM | 24.2 µM
Cc1cccc(Cl)c1NC(=O)c1cnc(Nc2cc(N3CCOCC3)cc(N3CCOCC3)c2)s1 | 0.326 µM | 2.77 µM
COc1ccc2c(c1)CCc1[nH]nc(-c3cc(OC)c(OC)c(OC)c3)c1-2 | < 0.01 µM | < 0.01 µM
c1cncc(-c2nc3ccccc3s2)c1 | > 100 µM | > 100 µM
COc1ccc(C2=Nc3c/c(=C\c4c(O)[nH]c5ccc(Cl)cc45)ccc3=N2)cc1 | 1.48 µM | 3.07 µM
COc1ccc(/C(=N\NC(N)=S)c2ccc(Cl)cc2)cc1OC | 1.91 µM | 7.99 µM
Cc1cc([N+](=O)[O-])ccc1NS(=O)(=O)c1cc(Cl)ccc1Cl | 1.66 µM | 7.61 µM
O=C1NC(=O)C(c2ccc(Cl)cc2)=C1Nc1ccc(Cl)c(C(=O)O)c1 | > 25 µM | > 25 µM
O=[N+]([O-])c1ccc2nc(/C=C(\O)c3ccccc3)c(/C=C(\O)c3ccccc3)nc2c1 | 4 µM | 61.7 µM
CCCCOC(=O)c1ccc(NC(=O)CCl)cc1 | 1.78 µM | 4.08 µM
CCCOC(=O)N[C@H]1CCc2cc(OC)c(OC)c(OC)c2-c2ccc(SC)c(=O)cc21 | < 0.01 µM | 13.5 µM
